Measured values reported in patent publication US20260092179A1, “GENETICALLY MODIFIED HOST CELLS PRODUCING VIOLACEIN, ANALOGUES, AND DERIVATIVES THEREOF” (OCTARINE BIO APS, priority 2022, published 2026).

How the values were obtained:
Assay type in all cases: physicochemical
[1] = Acidic pH stability of dyed fabrics (colour fastness, ΔE); details: pH 5 with HCl
Protocol: (§1) In order to assess the stability and colour fastness of violacein and violacein derivatives dyed onto fabrics, dyed fabrics were subjected to a number of conditions. Fabrics were dyed according to Example 18 and colour coordinates and colour change before and after exposure to a given condition were determined as described in Example 18. To measure temperature stability, fabrics were incubated in an oven set to 80° c. for 4 h. To measure stability under acid and alkaline conditions, fabrics were fully submerged in water solutions set to pH 8 with NaOH and pH 5 with HCl and incubated at room temperature for 30 minutes. Fabrics were then incubated at 37° c. for 4 h. To measure stability during laundering, fabrics were washed at 30° c. under the “mix” setting of a Siemens IQ300 washing machine, then dried in a Siemens IQ300 dryer until dry. To measure artificial light stability, fabrics were placed under an LED lamp at room temperature for 16 h. To measure UV light stability, fabrics were placed under a UV lamp at room temperature for 1 h.

[2] = Alkaline pH stability of dyed fabrics (colour fastness, ΔE); details: pH 8 with NaOH
Protocol: as §1

[3] = UV absorption capability (absorbance maxima, UV-A, UV-B, UV-C absorption) by HPLC
Protocol: The software Agilent Openlab CDS Chemstation Rev.
Violacein is reported as being a potent UV absorbent able to effectively absorb UV radiation, however, much less is known about the other violacein derivatives. To investigate the potential of using violacein and violacein derivatives as UV inhibitors and to potentially impart UV protection to fabrics, the UV absorption spectra of each compound was analyzed by HPLC and the total absorption capability at each of the most relevant UV wavelengths quantified.
For the quantification of UV absorption capacity of the compound of interest, a chromatographic separation on the F5 column and a gradient of water/acetonitrile containing 0.05% formic acid was run according to Example 5). […] The compounds were quantified based on the signal at 230 nm, using calibration curves of authentic analytical standards.
The UV absorption capacity is represented in mAU.min/mM. UV-A, UV-B and UV-C represent the most relevant regions where UV protection is required. UV-C is the most harmful type of UV radiation and can be generated by inorganic sources. UV-B radiation predominantly comes from the suns rays and is responsible for sun burn. UV-A radiation is also derived predominantly from the suns rays, and while UV-A radiation is less harmful than UV-B or UV-C but is much more prevalent.

[4] = Acrylic, before and after the stability test
[5] = Bleached cotton, before and after the stability test
[6] = Diacetate, before and after the stability test
[7] = Nylon 6,6, before and after the stability test
[8] = Polyester, before and after the stability test
[9] = Wool, before and after the stability test

Compound: O=C1NC(c2c[nH]c3ccc(O)cc23)=C/C1=C1\C(=O)Nc2ccccc21 [violacein]
- L ([1]; Acrylic, After test): 66.03
- a ([1]; Acrylic, After test): 2.78
- b ([1]; Acrylic, After test): 0.02
- L ([1]; Acrylic, Before test): 65.53
- a ([1]; Acrylic, Before test): 2.41
- b ([1]; Acrylic, Before test): 0.93
- ΔE [1, 4]: 1.10
- L ([1]; Bleached cotton, After test): 59.6
- a ([1]; Bleached cotton, After test): 2.72
- b ([1]; Bleached cotton, After test): −7.71
- L ([1]; Bleached cotton, Before test): 59.65
- a ([1]; Bleached cotton, Before test): 3.71
- b ([1]; Bleached cotton, Before test): −6.68
- ΔE [1, 5]: 1.43
- L ([1]; Diacetate, After test): 45.59
- a ([1]; Diacetate, After test): 9.13
- b ([1]; Diacetate, After test): −11.74
- L ([1]; Diacetate, Before test): 45.97
- a ([1]; Diacetate, Before test): 8.41
- b ([1]; Diacetate, Before test): −13
- ΔE [1, 6]: 1.50
- L ([1]; Nylon 6,6, After test): 34.94
- a ([1]; Nylon 6,6, After test): 5.43
- b ([1]; Nylon 6,6, After test): −20.31
- L ([1]; Nylon 6,6, Before test): 34.82
- a ([1]; Nylon 6,6, Before test): 5.47
- b ([1]; Nylon 6,6, Before test): −20.22
- ΔE [1, 7]: 0.16
- L ([1]; Polyester, After test): 68.04
- a ([1]; Polyester, After test): 1.96
- b ([1]; Polyester, After test): −1.34
- L ([1]; Polyester, Before test): 66.71
- a ([1]; Polyester, Before test): 3.52
- b ([1]; Polyester, Before test): −2.04
- ΔE [1, 8]: 2.17
- L ([1]; Wool, After test): 69.34
- a ([1]; Wool, After test): 1.2
- b ([1]; Wool, After test): 0.61
- L ([1]; Wool, Before test): 69.04
- a ([1]; Wool, Before test): 0.77
- b ([1]; Wool, Before test): 1.2
- ΔE [1, 9]: 0.79
- L ([2]; Acrylic, After test): 63.85
- a ([2]; Acrylic, After test): 2.52
- b ([2]; Acrylic, After test): 0.06
- L ([2]; Acrylic, Before test): 65.79
- a ([2]; Acrylic, Before test): 3.11
- b ([2]; Acrylic, Before test): 0.28
- ΔE [2, 4]: 2.04
- L ([2]; Bleached cotton, After test): 60.76
- a ([2]; Bleached cotton, After test): 3.22
- b ([2]; Bleached cotton, After test): −7.53
- L ([2]; Bleached cotton, Before test): 59.94
- a ([2]; Bleached cotton, Before test): 2.69
- b ([2]; Bleached cotton, Before test): −8.23
- ΔE [2, 5]: 1.20
- L ([2]; Diacetate, After test): 44.97
- a ([2]; Diacetate, After test): 7.85
- b ([2]; Diacetate, After test): −11.19
- L ([2]; Diacetate, Before test): 43.93
- a ([2]; Diacetate, Before test): 8.84
- b ([2]; Diacetate, Before test): −14.67
- ΔE [2, 6]: 3.76
- L ([2]; Nylon 6,6, After test): 33.91
- a ([2]; Nylon 6,6, After test): 5.25
- b ([2]; Nylon 6,6, After test): −19.35
- L ([2]; Nylon 6,6, Before test): 34.13
- a ([2]; Nylon 6,6, Before test): 6.3
- b ([2]; Nylon 6,6, Before test): −20.23
- ΔE [2, 7]: 1.39
- L ([2]; Polyester, After test): 68.28
- a ([2]; Polyester, After test): 1.01
- b ([2]; Polyester, After test): −0.5
- L ([2]; Polyester, Before test): 66.44
- a ([2]; Polyester, Before test): 4.15
- b ([2]; Polyester, Before test): −2.11
- ΔE [2, 8]: 3.98
- L ([2]; Wool, After test): 66.99
- a ([2]; Wool, After test): −0.18
- b ([2]; Wool, After test): 1.19
- L ([2]; Wool, Before test): 67.52
- a ([2]; Wool, Before test): 0.35
- b ([2]; Wool, Before test): 1.01
- ΔE [2, 9]: 0.77
- UV absorption capability in the UV-C region ([3]; 245 nm): particularly high
- Total UV absorption UV C (245 nm) ([3]; AUC of HPLC peak at 245 nm per mM): 8876.8 (mAU · min)/mM
- Total UV absorption UV B (305 nm) ([3]; AUC of HPLC peak at 305 nm per mM): 1011.6 (mAU · min)/mM
- Total UV absorption UV A (360 nm) ([3]; AUC of HPLC peak at 360 nm per mM): 411.4 (mAU · min)/mM
